Laboratory results as given in patent US20250206724A1, “SUBSTITUTED 3-AMINO INDAZOLE DERIVATIVES AS KINASE INHIBITORS” (NERVIANO MEDICAL SCIENCES S.R.L., priority 2022, published 2025).
Counter-ions that a name gives are not always drawn. Like-named read-outs stand apart in the source and are kept apart here.

Legend:
CDK11A = target: T1, CDK11A (Homo sapiens, UniProt Q9UQ88); conditions: displacement of SNS-032-Atto590 probe (0.002 μM) from CDK11A-p58 (0.032 uM), fluorescence polarization;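 note: compound preincubated 30 min with CDK11A-p58, then probe added and polarization (mP) read 15 min later, 0% displacement is probe plus enzyme, 100% is probe alone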
T1 sequence (Q9UQ88 346-783): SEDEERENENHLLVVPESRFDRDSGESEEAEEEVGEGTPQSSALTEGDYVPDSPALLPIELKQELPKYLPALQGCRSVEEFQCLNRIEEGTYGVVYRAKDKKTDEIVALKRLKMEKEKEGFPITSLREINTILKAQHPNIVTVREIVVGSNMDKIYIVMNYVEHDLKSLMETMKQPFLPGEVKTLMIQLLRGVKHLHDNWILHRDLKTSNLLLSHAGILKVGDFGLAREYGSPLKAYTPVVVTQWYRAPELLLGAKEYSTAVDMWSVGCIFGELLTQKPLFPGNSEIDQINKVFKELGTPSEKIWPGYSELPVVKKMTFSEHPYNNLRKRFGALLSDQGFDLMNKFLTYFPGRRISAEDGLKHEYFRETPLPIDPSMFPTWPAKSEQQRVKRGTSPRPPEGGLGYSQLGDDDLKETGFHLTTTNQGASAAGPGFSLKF
Experimental: Biochemical Kinase Inhibition Assay on CDK11 in Displacement Assay Format
Displacement Assay Format
Fluorescence Polarization (FP) experiments were carried out at room temperature using no-binding black 384-well microplates (Corning, NY), in 50 mM Tris HCl, pH 8, 10 mM MgCl2, 1 mM DTT, 1 mM CHAPS in a final volume of 60 μl. The plate reader was the Pherastar microplate reader (BMG). Polarization values were read using excitation and emission wavelengths of 590 and 675 nm, respectively. All FP values are expressed as mP units.
Compounds were 4-folds serially diluted in 100% DMSO and added directly to the CDK11A-p58 solution using the pin tool (V & P Scientific): 0.2 ul of the different compound concentrations in 20 ul of enzyme solution. After an incubation of 30 minutes at r.t., 40 ul of probe solution were added. […] The Pherastar reading is performed after 15 minutes of all components incubation. For each assay, high controls (equivalent to 0% displacement) contain probe, CDK11A-p58, and 0.33% DMSO, whereas low controls (equivalent to 100% displacement) contain only probe and 0.33% DMSO. Controls are used for the Z′ and signal to background evaluation.
The data per each molecule are analyzed by Prism SW or an internally customized version of the SW package “Assay Explorer” which provides sigmoidal fittings of the ten-dilution curves for DC50 determination using a 4 parameters logistic equation:
where x is the logarithm of the inhibitor concentration, y is the response; y starts at bottom and goes to top with a sigmoid shape.

MOLM-13 = assay: Cytotoxicity assay (CellTiterGlo, 72 hours treatment), MOLM-13; format: cell-based, Human; conditions: MOLM-13 acute myeloid leukemia cells, ATP determination, read-out: Cell line IC50 MOLM-13
Experimental: (§1) Cell Lines and Cell Cultures
(§2) All cell lines were seeded at a density ranging from 2,400 to 8,000 cells/well in 384-well cell culture microplates and incubated at […] in a humidified 5% […] atmosphere 24 hours before treatment. Compound solutions were directly administered to the cells using the D300e digital dispenser (Tecan) to obtain scalar final concentrations ranging from 5 nM to 10 μM (duplicate wells for each point), with 80 uL final volume per well. The final DMSO concentration in test wells was adjusted to 0.1% (v/v); control wells were mock-treated and contained the same final concentration of DMSO.
(§3) Cell viability was determined after 72 hours treatment by ATP determination in each test well with a luciferase-based detection system (CellTiterGlo, Promega, Madison, WI, USA), following manufacturer's instructions. The intensity of emitted light was measured using an EnVision reader (PerkinElmer, Waltham, MA USA) and expressed as RLU. One to three independent experiments were performed for each cell line, as indicated.
(§4) Analysis of Antiproliferative Data
(§5) Cell growth inhibitory activity was evaluated comparing treated versus control data using the Assay Explorer software suite (Symix Technologies Inc.). IC50s values were calculated by sigmoidal fitting interpolation using the following quadriparametric Hill equation: […]
(§6) The Top, Bottom and Hill slope parameters were left free to assume any value, but only curves whose Hill slope had values between 0.5 and 4 were arbitrarily considered acceptable and used to calculate the average IC50s. Curves too steep (HillSlope≥4) or too slight (HillSlope≤0.5) were not included (Table C).

NB-4 = assay: Cytotoxicity assay (CellTiterGlo, 72 hours treatment), NB-4; format: cell-based, Human; conditions: NB-4 acute myeloid leukemia cells, ATP determination, read-out: Cell line IC50 NB-4
Experimental: as §1, §2, §3, §4, §5, §6

EoL-1-cell = assay: Cytotoxicity assay (CellTiterGlo, 72 hours treatment), EoL-1; format: cell-based, Human; conditions: EoL-1 acute myeloid leukemia cells, ATP determination, read-out: Cell line IC50 EoL-1-cell
Experimental: as §1, §2, §3, §4, §5, §6

SMILES | DC50 (CDK11A) [nM] | other results
CC1(C)CCC(C(=O)Nc2n[nH]c3ccc(-c4cc(C#N)ccc4Cl)cc23)CN1 (stereo not drawn) [compound 184, N-[5-(2-Chloro-5-cyanophenyl)-1H-indazol-3-yl]-6,6-dimethylpiperidine-3-carboxamide hydrochloride] | 29 | IC50 (MOLM-13; Homo sapiens, MOLM-13, 72 h): 164 nM; IC50 (NB-4; Homo sapiens, NB-4, 72 h): 151 nM; IC50 (EoL-1-cell; Homo sapiens, EOL1, 72 h): 160 nM
Cc1ccc(C#N)cc1-c1ccc2[nH]nc(NC(=O)[C@@H]3CCCNC3)c2c1 [cpd 24, (3R)-N-[5-(5-Cyano-2-methylphenyl)-1H-indazol-3-yl]piperidine-3-carboxamide hydrochloride] | 43 | IC50 (MOLM-13; Homo sapiens, MOLM-13, 72 h): 563 nM; IC50 (NB-4; Homo sapiens, NB-4, 72 h): 595 nM; IC50 (EoL-1-cell; Homo sapiens, EOL1, 72 h): 423 nM
CC1(C)CCC(C(=O)Nc2n[nH]c3ccc(-c4cc(C#N)ccc4Cl)cc23)CN1 (single isomer, unassigned; (+)) [compound 202, (+)-N-[5-(2-Chloro-5-cyanophenyl)-1H-indazol-3-yl]-6,6-dimethylpiperidine-3-carboxamide] | 15 | IC50 (MOLM-13): 77 nM; IC50 (NB-4): 56 nM; IC50 (EoL-1-cell): 73 nM
C[C@@H]1CC[C@@H](C(=O)Nc2n[nH]c3ccc(-c4cc(C#N)ccc4Cl)cc23)CN1 [compound 179, (3R,6R)-N-[5-(2-Chloro-5-cyanophenyl)-1H-indazol-3-yl]-6-methylpiperidine-3-carboxamide trifluoroacetate] | 21 | IC50 (MOLM-13; Homo sapiens, MOLM-13, 72 h): 414 nM; IC50 (NB-4; Homo sapiens, NB-4, 72 h): 335 nM; IC50 (EoL-1-cell; Homo sapiens, EOL1, 72 h): 259 nM
O=C(Nc1n[nH]c2ccc(-c3c(Cl)cccc3Cl)cc12)C1CCCNC1 (stereo not drawn) [compound 157, N-[5-(2,6-Dichlorophenyl)-1H-indazol-3-yl]piperidine-3-carboxamide hydrochloride] | 59 | IC50 (MOLM-13; Homo sapiens, MOLM-13, 72 h): 521 nM; IC50 (NB-4; Homo sapiens, NB-4, 72 h): 512 nM; IC50 (EoL-1-cell; Homo sapiens, EOL1, 72 h): 590 nM
N#Cc1ccc(Cl)c(-c2ccc3[nH]nc(NC(=O)[C@@H]4CCC5(CCCC5)NC4)c3c2)c1 (single isomer, unassigned) [compound 204, (8+)-N-[5-(2-Chloro-5-cyanophenyl)-1H-indazol-3-yl]-6-azaspiro[4.5]decane-8-carboxamide hydrochloride] | 30 | IC50 (MOLM-13; Homo sapiens, MOLM-13, 72 h): 194 nM; IC50 (NB-4; Homo sapiens, NB-4, 72 h): 211 nM; IC50 (EoL-1-cell; Homo sapiens, EOL1, 72 h): 237 nM
O=C(Nc1n[nH]c2ccc(-c3c(Cl)cccc3Cl)cc12)[C@@H]1CCCNC1 [compound 169, (3R)-N-[5-(2,6-Dichlorophenyl)-1H-indazol-3-yl]piperidine-3-carboxamide hydrochloride] | 21 | IC50 (MOLM-13; Homo sapiens, MOLM-13, 72 h): 219 nM; IC50 (NB-4; Homo sapiens, NB-4, 72 h): 317 nM; IC50 (EoL-1-cell; Homo sapiens, EOL1, 72 h): 281 nM
O=C(Nc1n[nH]c2ccc(-c3c(Cl)cccc3Cl)cc12)[C@@H]1CCNC1 [compound 167, (3R)-N-[5-(2,6-Dichlorophenyl)-1H-indazol-3-yl]pyrrolidine-3-carboxamide hydrochloride] | 27 | IC50 (MOLM-13; Homo sapiens, MOLM-13, 72 h): 610 nM; IC50 (NB-4; Homo sapiens, NB-4, 72 h): 525 nM; IC50 (EoL-1-cell; Homo sapiens, EOL1, 72 h): 651 nM
Cc1ccc(F)c(-c2ccc3[nH]nc(NC(=O)[C@@H]4CCCNC4)c3c2)c1 [cpd 32, (3R)-N-[5-(2-Fluoro-5-methylphenyl)-1H-indazol-3-yl]piperidine-3-carboxamide hydrochloride] | 23 | IC50 (MOLM-13; Homo sapiens, MOLM-13, 72 h): 1510 nM; IC50 (NB-4; Homo sapiens, NB-4, 72 h): 2480 nM; IC50 (EoL-1-cell; Homo sapiens, EOL1, 72 h): 2040 nM
COc1ccc(-c2ccc3[nH]nc(NC(=O)[C@@H]4CCCNC4)c3c2)c(C(F)(F)F)c1 [cpd 31, (3R)-N-{5-[4-Methoxy-2-(trifluoromethyl)phenyl]-1H-indazol-3-yl}piperidine-3-carboxamide hydrochloride] | 94 | 
CN1CCC(C(=O)Nc2n[nH]c3ccc(-c4ccc(C(N)=O)cc4)cc23)CC1 [cpd 109, N-[5-(4-Carbamoylphenyl)-1H-indazol-3-yl]-1-methylpiperidine-4-carboxamide hydrochloride] | 967 | 
CCCCN1CCC(C(=O)Nc2n[nH]c3ccc(-c4c(Cl)cccc4Cl)cc23)CC1 [cpd 69, 1-Butyl-N-[5-(2,6-dichlorophenyl)-1H-indazol-3-yl]piperidine-4-carboxamide] | 122 | 
O=C(Nc1n[nH]c2ccc(-c3ccccc3)cc12)[C@@H]1CCCNC1 [cpd 49, (3R)-N-(5-Phenyl-1H-indazol-3-yl)piperidine-3-carboxamide hydrochloride] | 78 | 
Cc1nc(-c2ccc(Cl)c(-c3ccc4[nH]nc(NC(=O)[C@@H]5CCCNC5)c4c3)c2)no1 [cpd 60, (3R)-N-{5-[2-Chloro-5-(5-methyl-1,2,4-oxadiazol-3-yl)phenyl]-1H-indazol-3-yl}piperidine-3-carboxamide dihydrochloride] | 163 | 
CN1CCC(C(=O)Nc2n[nH]c3ccc(-c4ccc(F)cc4)cc23)CC1 [cpd 87, N-[5-(4-Fluorophenyl)-1H-indazol-3-yl]-1-methylpiperidine-4-carboxamide hydrochloride] | 988 | 
N#Cc1ccc(C#N)c(-c2ccc3[nH]nc(NC(=O)[C@@H]4CCCNC4)c3c2)c1 [cpd 53, (3R)-N-[5-(2,5-Dicyanophenyl)-1H-indazol-3-yl]piperidine-3-carboxamide hydrochloride] | 30 | 
NCCC(=O)Nc1n[nH]c2ccc(-c3c(Cl)cccc3Cl)cc12 [compound 175, N-[5-(2,6-Dichlorophenyl)-1H-indazol-3-yl]-b-alaninamide hydrochloride] | 339 | 
N#Cc1ccc(Cl)c(-c2ccc3[nH]nc(NC(=O)[C@H]4CCCNC4)c3c2)c1 [compound 181, (3S)-N-[5-(2-Chloro-5-cyanophenyl)-1H-indazol-3-yl]piperidine-3-carboxamide hydrochloride] | 64 | 
COc1c(F)cc(F)c(-c2ccc3[nH]nc(NC(=O)C4CCN(C)CC4)c3c2)c1F [compound 131, 1-Methyl-N-[5-(2,4,6-trifluoro-3-methoxyphenyl)-1H-indazol-3-yl]piperidine-4-carboxamide hydrochloride] | 438 | 
CN1CCC(C(=O)Nc2n[nH]c3ccc(-c4ccccc4F)cc23)CC1 [cpd 78, N-[5-(2-Fluorophenyl)-1H-indazol-3-yl]-1-methylpiperidine-4-carboxamide hydrochloride] | 308 | 
O=C(Nc1n[nH]c2ccc(-c3cc(O)ccc3Cl)cc12)[C@@H]1CCCNC1 [cpd 41, (3R)-N-[5-(2-Chloro-5-hydroxyphenyl)-1H-indazol-3-yl]piperidine-3-carboxamide hydrochloride] | 33 | 
COC(=O)c1ccc(Cl)c(-c2ccc3[nH]nc(NC(=O)[C@@H]4CCCNC4)c3c2)c1 [cpd 29, Methyl 4-chloro-3-(3-{[(3R)-piperidin-3-ylcarbonyl]amino}-1H-indazol-5-yl)benzoate hydrochloride] | 24 | 
CN1CCC(C(=O)Nc2n[nH]c3ccc(-c4ccc(F)cc4F)cc23)CC1 [compound 124, N-[5-(2,4-Difluorophenyl)-1H-indazol-3-yl]-1-methylpiperidine-4-carboxamide hydrochloride] | 637 | 
CN1CCC(C(=O)Nc2n[nH]c3ccc(-c4ccc(Cl)cc4Cl)cc23)CC1 [cpd 106, N-[5-(2,4-Dichlorophenyl)-1H-indazol-3-yl]-1-methylpiperidine-4-carboxamide hydrochloride] | 259 | 
CN1CCC(C(=O)Nc2n[nH]c3ccc(-c4c(Cl)cccc4Cl)cc23)CC1 [cpd 68, N-[5-(2,6-Dichlorophenyl)-1H-indazol-3-yl]-1-methylpiperidine-4-carboxamide] | 85 | 
N#Cc1ccc(Cl)c(-c2ccc3[nH]nc(NC(=O)[C@@H]4CCC5(CCCCC5)NC4)c3c2)c1 (single isomer, unassigned) [compound 207, (3-)-N-[5-(2-Chloro-5-cyanophenyl)-1H-indazol-3-yl]-1-azaspiro[5.5]undecane-3-carboxamide] | 229 | 
O=C(Nc1n[nH]c2ccc(-c3cc(-c4ncon4)ccc3Cl)cc12)[C@@H]1CCCNC1 [cpd 58, (3R)-N-{5-[2-Chloro-5-(1,2,4-oxadiazol-3-yl)phenyl]-1H-indazol-3-yl}piperidine-3-carboxamide dihydrochloride] | 20 | 
